In patent US20240425512A1, “NITROGEN-CONTAINING HETEROCYCLIC COMPOUND, PHARMACEUTICAL COMPOSITION THEREOF AND APPLICATION THEREOF” (280 Bio, Inc., priority 2023, published 2024):
Where two headings read alike, the source gives them in different places.

Tests used:
Format in all cases: cell-based
[1] = system: NCI-H441 lung cancer cell with KRAS G12V mutation; assay: Proliferation inhibition on RAS cell lines measured by CTG, NCI-H441; conditions: Homo sapiens, Table 2, NCI-H441 cells, incubated for 6 days, CellTiter Glo
Text: (§1) NCI-H358 is a human non-small cell lung cancer cell line with KRAS G12C mutation; AGS is a gastric cancer cell line with KRAS G12D mutation; SW620 is a colon cancer cell with KRAS G12V mutation; NCI-H460 is a non-small cell lung cancer cell with KRAS Q61H mutation; MKN1 is a wild-type gastric cancer cell with KRAS-amplified; LS513 is a colon cancer cell with KRAS G12D mutation; LoVo is a colon cancer cell with KRAS G13D mutation; NCI-H441 is a lung cancer cell with KRAS G12V mutation, and Capan-2 is a pancreatic cancer cell with KRAS G12V mutation.
(§2) The proliferation inhibitory effect of the compounds on various mutations was evaluated by determining the proliferation inhibitory activity of the compounds on these cell lines.
(§3) The assay was conducted on either 384-well plates or 96-well plates. The procedures are as follows:
(§4) The cell suspensions were added to 384- or 96-well plates (384-well plate: 50 μL; 96-well plate: 100 μL) except for peripheral wells. The plates were placed in a carbon dioxide incubator overnight. NCI-H358, AGS, NCI-H460, MKN-1, LS513, LoVo, and NCI-H441 were placed in a 5%, 370 carbon dioxide incubator overnight, and SW620 was placed in a 0%, 370 carbon dioxide incubator overnight. The HPD300 micro-dosing instrument was used to add the corresponding concentration of compound to each well (9-10 concentration gradients of compound were obtained by 3-fold dilution). Cell plates were incubated in a carbon dioxide incubator for 5-6 days. NCI-H358, AGS, NCI-H460 and MKN-1 were incubated at 5%, 37° incubator and SW620 was incubated at 0%, 370 incubator. On the day of plate measurement, the 384- or 96-well plates were first equilibrated at room temperature for 10-30 min, then CellTiter Glo reagent (384-well plate: 25 μL; 96-well plate: 100 μL) was added to the 384- or 96-well plate, shaken for 10 min away from light, and incubated for 10 min. The plates were placed into Victor NIVO or ENVIDION reader plates, and XLFit was utilized to plot the pharmacodynamic inhibition curve and calculate the IC50 value. “IC50>10 μM” is denoted by “*”, “10 μM≥IC50≥1 μM” is denoted by “**”, and “1 μM≥IC50>100 nM” is denoted by “***”, “IC50<100 nM” is denoted by “****”

[2] = system: LS513 colon cancer cell with KRAS G12D mutation; assay: Proliferation inhibition on RAS cell lines measured by CTG, LS513; conditions: LS513 cells, incubated for 6 days, CellTiter Glo
Text: as §1, §2, §3, §4

[3] = system: SW620 colon cancer cell with KRAS G12V mutation; assay: Proliferation inhibition on RAS cell lines measured by CTG, SW620; conditions: Homo sapiens, SW-620, 144 h; Table 2; SW620 cells, incubated for 6 days, CellTiter Glo; read-out: IC50 (SW620^c)
Text: as §1, §2, §3, §4

GP2D cells = assay: Proliferation inhibition on RAS cell lines measured by CTG, GP2D; conditions: CellTiter Glo
Method: as §2, §3, §4

[4] = Homo sapiens, LS-513, 144 h, Table 2, read-out: IC50 (LS513^f)
[5] = 144 h, Table 3, incubated for 6 days, read-out: IC50 (GP2D^l)
[6] = Homo sapiens, LS-513, 144 h, Table 3, read-out: IC50 (LS513^k)
[7] = 144 h, Table 2, incubated for 6 days, read-out: IC50 (GP2D^j)
[8] = Table 3, incubated for 6 days, read-out: IC50 (GP2D^l)
[9] = Table 3, read-out: IC50 (LS513^k)

C#Cc1c(F)ccc2cc(O)cc(-c3ncc4c(N5CCCCCN5)nc(OCC56CCCN5CC(=C)C6)nc4c3F)c12 (stereo not shown) [Compound 24]
IC50 ([1]; NCI-H441, 144 h): 100 to 1000 nM | IC50 [2, 4]: < 100 nM

C#Cc1c(F)ccc2cc(O)cc(-c3ncc4c(N5CCCCN5C(=O)OC(C)(C)C)nc(OC[C@@]56CCCN5C[C@H](F)C6)nc4c3F)c12 [Compound 17]
IC50 ([1]; NCI-H441, 144 h): 100 to 1000 nM | IC50 [2, 4]: < 100 nM

C#Cc1c(F)ccc2cc(O)cc(-c3c(Cl)cc4c(N5CCCCCN5)nc(OC[C@@]56CCCN5C[C@H](F)C6)nc4c3F)c12 [Compound 41]
IC50 [3]: 1000 to 10000 nM

C#Cc1c(F)ccc2cc(O)cc(-c3ncc4c(N5CCCN5)nc(OC[C@@]56CCCN5C[C@H](F)C6)nc4c3F)c12 [Compound 18]
IC50 ([1]; NCI-H441, 144 h): 1000 to 10000 nM | IC50 [2, 4]: 1000 to 10000 nM

C#Cc1c(F)ccc2cc(O)cc(-c3ncc4c(N5CCCCCCN5)nc(OC[C@@]56CCCN5C[C@H](F)C6)nc4c3F)c12 [Compound 15]
IC50 ([1]; NCI-H441, 144 h): 100 to 1000 nM | IC50 [2, 4]: 100 to 1000 nM

C#Cc1c(F)ccc2cc(O)cc(-c3ncc4c(N5CC(O)CCCN5)nc(OC[C@@]56CCCN5C[C@H](F)C6)nc4c3F)c12 (stereo partly shown) [Compound 39]
IC50 [3]: 1000 to 10000 nM

C#Cc1c(F)ccc2cc(OCOC(=O)N(C)C)cc(-c3ncc4c(N5CCCCCN5)nc(OC[C@@]56CCCN5C[C@H](F)C6)nc4c3F)c12 [Compound 145]
IC50 (GP2D cells; [5]): 100 to 1000 nM | IC50 [2, 6]: 100 to 1000 nM

CCc1c(F)ccc2cc(N)cc(-c3c(Cl)cc4c(N5CCCCCN5)nc(OC[C@@]56CCCN5C[C@H](F)C6)nc4c3F)c12 [Compound 134]
IC50 (GP2D cells; [5]): 1000 to 10000 nM | IC50 [2, 6]: 100 to 1000 nM

C#Cc1c(F)ccc2cc(OC(=O)NCCCCCCCCCCCCCCCC)cc(-c3ncc4c(N5CCCCCN5)nc(OC[C@@]56CCCN5C[C@H](F)C6)nc4c3F)c12 [Compound 101]
IC50 (GP2D cells; [5]): < 100 nM | IC50 [2, 6]: < 100 nM

C#Cc1c(F)ccc2cc(O)cc(-c3ncc4c(N5CCCC(O)CN5)nc(OC[C@@]56CCCN5C[C@H](F)C6)nc4c3F)c12 (stereo partly shown) [Compound 38]
IC50 [3]: 1000 to 10000 nM

C#Cc1c(F)ccc2cc(OC(=O)C(C)C)cc(-c3ncc4c(N5CCCCCN5)nc(OC[C@@]56CCCN5C[C@H](F)C6)nc4c3F)c12 [Compound 23]
IC50 ([1]; NCI-H441, 144 h): < 100 nM | IC50 [2, 4]: < 100 nM

C#Cc1c(F)ccc2cc(O)cc(-c3ncc4c(N5CCCCCN5)nc(OC[C@]56CCCN5[C@H](c5cc(F)c(F)c(F)c5)CC6)nc4c3F)c12 [Compound 85]
IC50 (GP2D cells; [7]): 100 to 1000 nM | IC50 [2, 4]: 100 to 1000 nM

C#Cc1c(F)ccc2cc(N)cc(-c3ncc4c(N5CCCCCN5)nc(OC[C@@]56CCCN5C[C@H](F)C6)nc4c3F)c12 [Compound 30]
IC50 [3]: < 100 nM | IC50 [2, 4]: < 100 nM

C#Cc1c(F)ccc2cc(OC(=O)NCCCC)cc(-c3ncc4c(N5CCCCCN5)nc(OC[C@@]56CCCN5C[C@H](F)C6)nc4c3F)c12 [Compound 94]
IC50 (GP2D cells; [5]): < 100 nM | IC50 [2, 6]: < 100 nM

C#Cc1c(F)ccc2cc(O)cc(-c3ncc4c(N5CCCCCN5)nc(OC[C@@]56CC[C@H](c7ccc(C(F)(F)F)c(F)c7)N5C[C@H](F)C6)nc4c3F)c12 [Compound 118]
IC50 (GP2D cells; [5]): 100 to 1000 nM | IC50 [2, 6]: 100 to 1000 nM

C#Cc1c(F)ccc2cc(O)cc(-c3ncc4c(N5CCCCCN5)nc(OCC5(C)CN(C)CCC5C(F)F)nc4c3F)c12 (stereo not shown) [Compound 149]
IC50 (GP2D cells; [5]): < 100 nM | IC50 [2, 6]: < 100 nM

C#Cc1c(F)ccc2cc(OC(=O)NC)cc(-c3ncc4c(N5CCCCCN5)nc(OC[C@@]56CCCN5C[C@H](F)C6)nc4c3F)c12 [Compound 19]
IC50 ([1]; 144 h): 1000 to 10000 nM | IC50 [2, 4]: < 100 nM

C#Cc1c(F)ccc2cc(O)cc(-c3ncc4c(N5CCCCCN5)nc(OCC56CCCN5CC(F)(F)C6)nc4c3F)c12 (stereo not shown) [Compound 37]
IC50 [3]: < 100 nM | IC50 [2, 4]: < 100 nM

C#Cc1c(F)ccc2cc(O)cc(-c3ncc4c(N5CCCCCN5)nc(OCC56COC(C5)C6)nc4c3F)c12 [Compound 137]
IC50 (GP2D cells; [5]): 100 to 1000 nM | IC50 [2, 6]: 100 to 1000 nM

C#Cc1c(F)ccc2cc(O)cc(-c3ncc4c(N5CCCCCN5)nc(OC[C@@]56CC[C@H](c7ccc(OC(F)(F)F)cc7)N5C[C@H](F)C6)nc4c3F)c12 [Compound 121]
IC50 (GP2D cells; [5]): 100 to 1000 nM | IC50 [2, 6]: 100 to 1000 nM

C#Cc1c(F)ccc2cc(O)cc(-c3ncc4c(N5CCCCCN5C(=O)C(F)(F)F)nc(OC[C@@]56CCCN5C[C@H](F)C6)nc4c3F)c12 [Compound 68]
IC50 (GP2D cells; [7]): < 100 nM | IC50 [2, 4]: < 100 nM

C#Cc1c(F)ccc2cc(OC(=O)N[C@H](C(=O)O)[C@@H](C)CC)cc(-c3ncc4c(N5CCCCCN5)nc(OC[C@@]56CCCN5C[C@H](F)C6)nc4c3F)c12 [Compound 96]
IC50 (GP2D cells; [8]): < 100 nM | IC50 [2, 9]: < 100 nM

C#Cc1c(F)ccc2cc(OC(=O)[C@@H](NC(=O)OC(C)(C)C)C(C)C)cc(-c3ncc4c(N5CCCCCN5)nc(OC[C@@]56CCCN5C[C@H](F)C6)nc4c3F)c12 [Compound 95]
IC50 (GP2D cells; [8]): < 100 nM | IC50 [2, 9]: < 100 nM

C/C=C\c1c(Cl)cc2[nH]ncc2c1-c1c(F)cc2c(N3CCCCCN3)nc(OC[C@@]34CCCN3C[C@H](F)C4)nc2c1F [Compound 50]
IC50 [3]: 100 to 1000 nM | IC50 [2, 4]: 100 to 1000 nM

CCc1c(F)ccc2c(F)c(O)cc(-c3ncc4c(N5CCCCCN5)nc(OC[C@@]56CCCN5C[C@H](F)C6)nc4c3F)c12 [Compound 125]
IC50 (GP2D cells; [8]): 100 to 1000 nM | IC50 [2, 9]: 100 to 1000 nM

C#Cc1c(F)ccc2cc(O)cc(-c3ncc4c(N5CCCCCN5)nc(OCC56CCCN5C(COc5cc(C(F)(F)F)cnn5)CC6)nc4c3F)c12 (stereo not shown) [Compound 58]
IC50 (GP2D cells; [7]): < 100 nM | IC50 [2, 4]: < 100 nM

C#Cc1c(F)ccc2cc(O)cc(-c3ncc4c(N5CCCCCN5)nc(OC[C@@]56CC[C@H](c7cc(F)c(F)c(F)c7)N5C[C@H](F)C6)nc4c3F)c12 [Compound 103]
IC50 (GP2D cells; [8]): < 100 nM | IC50 [2, 9]: < 100 nM

C#Cc1c(F)ccc2cc(OC(=O)N3CCC[C@H]3COC)cc(-c3ncc4c(N5CCCCCN5)nc(OC[C@@]56CCCN5C[C@H](F)C6)nc4c3F)c12 [Compound 74]
IC50 (GP2D cells; [5]): < 100 nM | IC50 [2, 6]: < 100 nM

C#Cc1c(F)ccc2cc(OC(=O)N(C)CCNC)cc(-c3ncc4c(N5CCCCCN5)nc(OC[C@@]56CCCN5C[C@H](F)C6)nc4c3F)c12 [Compound 153]
IC50 (GP2D cells; [5]): < 100 nM | IC50 [2, 6]: < 100 nM

C#Cc1c(F)ccc2cc(O)cc(-c3ncc4c(N5CCCCCN5)nc(OCC5(CN6CCC(=CF)CC6)CC5)nc4c3F)c12 [Compound 106]
IC50 (GP2D cells; [5]): < 100 nM | IC50 [2, 6]: < 100 nM

C#Cc1c(F)ccc2cc(OC(=O)N3CCC(N4CCCCC4)CC3)cc(-c3ncc4c(N5CCCCCN5)nc(OC[C@@]56CCCN5C[C@H](F)C6)nc4c3F)c12 [Compound 73]
IC50 (GP2D cells; [5]): 100 to 1000 nM | IC50 [2, 6]: 100 to 1000 nM

C#Cc1c(F)ccc2cc(OC(=O)COCCOCCOCCOC)cc(-c3ncc4c(N5CCCCCN5)nc(OC[C@@]56CCCN5C[C@H](F)C6)nc4c3F)c12 [Compound 102]
IC50 (GP2D cells; [8]): < 100 nM | IC50 [2, 9]: < 100 nM

C#Cc1c(F)ccc2cc(OC(=O)N(C)C[C@@H]3CCCN3)cc(-c3ncc4c(N5CCCCCN5)nc(OC[C@@]56CCCN5C[C@H](F)C6)nc4c3F)c12 [Compound 151]
IC50 (GP2D cells; [5]): < 100 nM | IC50 [2, 6]: < 100 nM

C#Cc1c(F)ccc2cc(OC(=O)N(CCOC)CCOC)cc(-c3ncc4c(N5CCCCCN5)nc(OC[C@@]56CCCN5C[C@H](F)C6)nc4c3F)c12 [Compound 98]
IC50 (GP2D cells; [5]): < 100 nM | IC50 [2, 6]: < 100 nM

C#Cc1c(F)ccc2cc(O)cc(-c3c(F)cc4c(N5CCCCCN5)nc(OC[C@@]56CCCN5C[C@H](F)C6)nc4c3F)c12 [Compound 49]
IC50 [3]: < 100 nM | IC50 [2, 4]: < 100 nM
